Results taken from US11192850B2, “N-aryl oxamic acids” (Purdue Research Foundation, priority 2020, dated 2021).

System: mPTPB transfected Raw264.7 cells
Assay: Blocking mPTPB-mediated signaling, Western blotting
Assay type: cell-based, mouse
Settings: dose-dependent

## O=C(O)C(=O)Nc1ccc(C#Cc2ccc(C(F)(F)F)cc2Cl)cc1 [Compound 4t, 2-((4-((2-chloro-4-(trifluoromethyl)phenyl)ethynyl)phenyl)amino)-2-oxoacetic Acid]
  Akt activity: reduced
  IFN-γ induced phosphorylation of ERK1/2 and p38: increased
